The results in this text go back to patent US7812121B2 (priority 2006, dated 2010).

Series [1] is described as follows: CD spectra secondary structure. The series is classed as physicochemical. The following applies: 0.2 mg/mL peptide in PBS, 25° C. As to the method:
The secondary structures of tested peptides were determined using 0.2 mg/mL peptide solutions in PBS. Briefly, CD spectra were collected in triplicate at 1 nm intervals at 25° C. in 0.1 cm path length cell. Secondary structures were determined by fitting of the CD spectra using CD spectra software (CD Spectra Deconvolution software 2.1). All tested peptides contained peaks corresponding to the presence of alpha helices.

Series [2] can be described thus: SEC-SLS solution molecular weight / self-association. The series is classed as physicochemical. To be noted: PBS (pH 7.5); for SEC-SLS elution / association state of peptides: 1 mg/ml. As to the method:
Solution molecular weight of the peptides was measured by SEC-SLS. Briefly, peptide solutions in PBS (pH 7.5) at 0.4 to 2.0 mg/mL were fractionated over a Superdex peptide column (Amersham Pharmacia). The eluted peaks were monitored by static light scattering at 690 nm and solution molecular weight was determined at UV 280 nm using the Astra software package (Wyatt Inc.).

Series [3] addresses T1, mutated human GLP-2R (Homo sapiens, UniProt O95838, E512D/G511A/L513V).
T1 construct: expressed in transfected cells; host or cells: HEK 293E (clonal line, transfected)
T1 sequence (O95838 1-553 G511A/E512D/L513V): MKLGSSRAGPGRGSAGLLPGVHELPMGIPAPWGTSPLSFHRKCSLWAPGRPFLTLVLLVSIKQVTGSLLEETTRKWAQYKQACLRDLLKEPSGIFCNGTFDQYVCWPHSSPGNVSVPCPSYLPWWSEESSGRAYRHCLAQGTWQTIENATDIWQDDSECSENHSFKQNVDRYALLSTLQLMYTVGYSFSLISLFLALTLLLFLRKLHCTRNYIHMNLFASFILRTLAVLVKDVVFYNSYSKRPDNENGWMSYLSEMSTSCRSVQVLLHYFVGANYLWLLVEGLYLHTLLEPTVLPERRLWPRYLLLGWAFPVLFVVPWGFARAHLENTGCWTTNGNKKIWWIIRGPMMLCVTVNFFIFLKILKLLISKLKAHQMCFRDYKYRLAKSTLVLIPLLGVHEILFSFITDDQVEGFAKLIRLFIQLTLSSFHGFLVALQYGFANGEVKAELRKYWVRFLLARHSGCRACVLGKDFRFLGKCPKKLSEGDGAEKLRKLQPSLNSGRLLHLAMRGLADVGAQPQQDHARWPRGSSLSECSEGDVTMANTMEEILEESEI
Description: cAMP expression assay. Type of series: cell-based. To be noted: for EC50: Table 5, peptides 0.01 nM to 1.0 uM, 30-minute incubation at 37° C., read-out: cAMP in Vitro EC50 values; for less activity relative to wild type GLP-2: from cAMP EC50. The source says: To achieve this goal, a clonal cell line expressing a mutated human GLP-2R was generated by transfecting HEK 293E cells. The mutated human GLP-2R differs from the wild-type human GLP-2R (SEQ ID NO: 35) at three amino acid positions within the C-terminal intracellular region (SEQ ID NO: 36).
The CAMP expression was quantitated using the cAMP Direct Screen System (Cat. No. CSD 200, Applied Biosystems, Bedford, Mass.).
This assay was based on the cAMP Direct screen system from Applied Biosystems utilizing a cell line expressing mutated huGLP-2R in HEK 293E cells. Peptide at concentrations ranging from 0.01 nM to 1.0 uM in PBS with 0.5% BSA was added to ˜50,000 cells suspended in 96-well plates. After a 30-minute incubation at 37° C., Lysis Buffer followed by luminescence reagents (Applied Biosystems) was added according to the manufacturers' procedures (Applied Biosystems Luminescence protocol: cAMP-Screen Direct System). Luminescence was quantitated using a TopCount liquid scintillation analyzer (PerkinElmer), and data was processed using Softmax software (Molecular Devices Corporation).

The nature of series [4]: Incubation with U937 cell lysate, SDS-PAGE. The series is classed as in vitro ADME. To be noted: 24 hour test period, compared with A2G GLP-2 mimetibody (SEQ ID NO: 5). As to the method: The purified Pro substitution variants were incubated with U937 cell lysate in the presence of CompleteMini protease inhibitor tablets (Cat. No. 1 836 153, Roche Applied Science, Indianapolis, Ind.) for 0, 12, or 24 hours. Afterwards, GLP-2 mimetibody variants were purified using Protein A beads and resolved on a SDS-PAGE gel.

The nature of series [5]: SEC-SLS solution molecular weight / self-association. Type of series: physicochemical. The following applies: purified mimetibody.

Ends that are not written are not given here.

Take `CC[C@H](C)[C@H](NC(=O)[C@H](Cc1ccccc1)NC(=O)[C@H](CC(=O)O)NC(=O)[C@H](CCCNC(=N)N)NC(=O)[C@H](C)NC(=O)[C@H](C)NC(=O)[C@H](CC(C)C)NC(=O)[C@H](CC(N)=O)NC(=O)[C@H](CC(=O)O)NC(=O)[C@H](CC(C)C)NC(=O)[C@@H](NC(=O)[C@@H](NC(=O)[C@H](CC(N)=O)NC(=O)[C@H](CCSC)NC(=O)[C@H](CCC(=O)O)NC(=O)[C@H](CC(=O)O)NC(=O)[C@H](CO)NC(=O)[C@H](Cc1ccccc1)NC(=O)[C@H](CO)NC(=O)CNC(=O)[C@H](CC(=O)O)NC(=O)[C@H](C)NC(=O)[C@@H](N)Cc1c[nH]cn1)[C@@H](C)O)[C@@H](C)CC)C(=O)N[C@@H](CC(N)=O)C(=O)N[C@@H](Cc1c[nH]c2ccccc12)C(=O)N[C@@H](CC(C)C)C(=O)N[C@H](C(=O)N[C@@H](CCC(N)=O)C(=O)N[C@H](C(=O)N[C@@H](CCCCN)C(=O)N[C@H](C(=O)N[C@H](C(=O)N[C@@H](CC(=O)O)C(=O)O)[C@@H](C)O)[C@@H](C)CC)[C@@H](C)O)[C@@H](C)CC` [SEQ ID NO: 1, GLP-2, reference compound]: in series [1], the Helix is 19.6% and the Random coil was 37.9%. The association state result in series [2] (0.4 mg/mL) was “monomer”. Besides, the “SEC-SLS elution / association state of peptides” value in series [2] is “overlapping dimer and monomer peaks”. The “stimulation of cAMP expression” value in series [3] (clonal HEK 293E line expressing mutated human GLP-2R) is on record as “stimulated cAMP expression”.

As for “GLP-1 [SEQ ID NO: 79, reference compound]”, in series [1], the Helix turned out to be 16.8% and the Random coil worked out at 41.9%. The “SEC-SLS elution / association state of peptides” value in series [2] is listed as “single peak with molecular weight within the expected monomer size”.

In series [1], “HGDGSFSDEMNTILDGQAARDFINWLIQTKITD [SEQ ID NO: 55, GLP-2(A2G, N16G, L17Q)]” returned a Random coil of 41.4%. Also, in series [1] (listed as GLP-2 (A2G, N16G, L17Q)), the Helix is 17.0%. The molecule also showed a Helix in series [1] (listed as GLP-2(A2G, N16G, L17Q)) of about 17%. Moreover, the “SEC-SLS elution / association state of peptides” value in series [2] is “mainly monomeric peptide”. Moreover, in series [3], the EC50 turned out to be 3.5 nM and the “less activity relative to wild type GLP-2” value turned out to be 2 ×.

In series [1], “HGDGSFSDEMNTILDNQAARDFINWLIQTKITD [SEQ ID NO: 54, GLP-2(A2G, L17Q)]” had a Random coil of 41.8%. Further, the Helix in series [1] (listed as GLP-2 (A2G, L17Q)) is reported as 16.9%; in series [1] (listed as GLP-2(A2G, L17Q)), about 17%. For the same molecule, the “SEC-SLS elution / association state of peptides” value in series [2] is recorded as “mainly monomeric peptide”. For the same molecule, the EC50 in series [3] was 5.2 nM. Also, the “less activity relative to wild type GLP-2” value in series [3] stood at 3 ×.

Regarding “SEQ ID NO: 43: A2G GLP-2 mimetibody Pro substitution variant, V2 GALVAVPS (HGDGSFSDEMNTILDNLAARDFINWLIQTKITDGSGGGSGALVAVPSESKYGPPCPPCP; cysteine pairing not given here; also: part of GLP-2 mimetibody)”, the “degradation / resistance to proteolysis” value in series [4] is listed as “less degradation”.

Turning to “SEQ ID NO: 44: A2G GLP-2 mimetibody Pro substitution variant, V2 GALVAVSP (HGDGSFSDEMNTILDNLAARDFINWLIQTKITDGSGGGSGALVAVSPESKYGPPCPPCP; Mimetibody)”, in series [4], the “degradation / resistance to proteolysis” value is on record as “less degradation”.

B1: SEQ ID NO: 4: A2S GLP-2 mimetibody, IgG4 Hg-CH2-CH3 with S228P and P234A/L235A (protein)
chain: HSDGSFSDEMNTILDNLAARDFINWLIQTKITDGSGGGSGTLVTVSSESKYGPPCPPCPAPEAAGGPSVFLFPPKPDTLMISRTPEVTCVVVDVSQEDPEVQFNWYVDGVEVHNAKTKPREEQFNSTYRVVSVLTVLHQDWLNGKEYKCKVSNKGLPSSIEKTISKAKGQPREPQVYTLPPSQEEMTKNQVSLTCLVKGFYPSDIAVEWESNGQPENNYKTTPPVLDSDGSFFLYSRLTVDKSRWQEGNVFSCSVMHEALHNHYTQKSLSLSLGK
modifications: Mimetibody
In the case of B1, the “SEC-SLS association state of mimetibodies” value in series [5] is reported as “dimer”.

For orientation: EC50 means the concentration giving half of the maximal effect.
